Results reported in US9255295B2, “Method for evaluating the sensitizing potential of a test compound” (IMMUNOSEARCH, priority 2010, dated 2016).
Where two headings read alike, the source gives them in different places.

Key:
[1] = tested on: genes specific for sensitization (BRAK, CTSS, DAPK2, FABP4, HSP27, IL18, HSP90, IL1R2, TPSAB1, CXCR1, DEFB1, DHFR, EHF, IVL, KRT4, MELANA, NGAL, PDZK1IP1, PI3 …); assay: Expression of the other (non-ARE) sensitization-specific genes in EPISKIN reconstructed skin (quantitative RT-PCR); assay type: cell-based, human; conditions: for BRAK expression / CTSS expression / CXCR1 expression / DAPK2 expression / DEFB1 expression / DHFR expression / EHF expression / FABP4 expression / HSP27 expression / HSP90 expression / IL18 expression / IVL expression / KRT4 expression / MELANA expression / NGAL expression / P13 expression / PDZK1iP1 expression / SERPINB3 expression: compared to the control;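 as to CTSS NUMBER OF GENES grade: grade scored against expression in the control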;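 as to CXCR1 NUMBER OF GENES grade: grade scored against expression in the control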;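 as to DAPK2 NUMBER OF GENES grade: grade scored against expression in the control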
[2] = tested on: ARE gene family (AKR1B10, AKR1C1, AKR1C2, CYP1B1, FTH1P, FTL, G6PD, GCLM, NQO2, SLC7A11, TXNRD1, UGT1A1, UGT1A9, YWHAZ, CD36, CYP1A1, GCLC, HMOX1, NQO1, PSME2 …)
[3] = tested on: EPISKIN model
From the text: “Sensitizing power” means the ability of a given compound to induce a sensitization reaction according to the concentration of said compound. Sensitizing power is dependent on the quantity of substance necessary to induce sensitization. Thus, the lower the sensitizing quantity necessary to induce a sensitizing response, the stronger the sensitizer is, and vice versa, the higher the sensitizing quantity necessary to induce a sensitizing response, the weaker the sensitizer is.
Thus, steps 1) and 2) will be done for each of the dilutions.

In the case of `C=CCc1ccc(O)c(OC)c1` [Eugenol], the “BRAK NUMBER OF GENES grade” value ([1]; 10%) is reported as 0 (if this expression is lower, the grade is 0), the “CTSS NUMBER OF GENES grade” value ([1]; 10%) is reported as 0 (if this expression is lower, the grade is 0) and the “CXCR1 NUMBER OF GENES grade” value ([1]; 10%) is reported as 0 (if this expression is lower, the grade is 0). The “DAPK2 NUMBER OF GENES grade” value ([1]; 10%) was 1 (If the expression is greater than 1.3 compared to the control, a grade of 11s given), the “DEFB1 NUMBER OF GENES grade” value ([1]; 10%) was 0 (if this expression is lower, the grade is 0) and the “DHFR NUMBER OF GENES grade” value ([1]; 10%) was 0 (if this expression is lower, the grade is 0). For the same compound, the “EHF NUMBER OF GENES grade” value ([1]; 10%) was 1 (If the expression is greater than 1.3 compared to the control, a grade of 11s given), the “FABP4 NUMBER OF GENES grade” value ([1]; 10%) was 0 (if this expression is lower, the grade is 0) and the “HSP27 NUMBER OF GENES grade” value ([1]; 10%) was 0 (if this expression is lower, the grade is 0). The “HSP90 NUMBER OF GENES grade” value ([1]; 10%) was 0 (if this expression is lower, the grade is 0), the “IL18 NUMBER OF GENES grade” value ([1]; 10%) was 0 (if this expression is lower, the grade is 0) and the “IVL NUMBER OF GENES grade” value ([1]; 10%) was 0 (if this expression is lower, the grade is 0). The “KRT4 NUMBER OF GENES grade” value ([1]; 10%) was 0 (if this expression is lower, the grade is 0), the “MELANA NUMBER OF GENES grade” value ([1]; 10%) was 1 (If the expression is greater than 1.3 compared to the control, a grade of 11s given) and the “NGAL NUMBER OF GENES grade” value ([1]; 10%) was 0 (if this expression is lower, the grade is 0). For the same compound, the “P13 NUMBER OF GENES grade” value ([1]; 10%) was 0 (if this expression is lower, the grade is 0), the “PDZK1iP1 NUMBER OF GENES grade” value ([1]; 10%) was 0 (if this expression is lower, the grade is 0) and the “SENS >1.3 (number of genes)” value ([1]; 10%) was 4. For the same compound, the “SERPINB3 NUMBER OF GENES grade” value ([1]; 10%) was 0 (if this expression is lower, the grade is 0), the “TOTAL SENS (number of genes)” value ([1]; 10%) was 4 and the BRAK expression ([1]; 10%) was 0.7. It also gave a CTSS expression ([1]; 10%) of 1.0, a CXCR1 expression ([1]; 10%) of 0.8 and a DAPK2 expression ([1]; 10%) of 1.3. It also gave a DEFB1 expression ([1]; 10%) of 1.1, a DHFR expression ([1]; 10%) of 0.8 and an EHF expression ([1]; 10%) of 1.3. The FABP4 expression ([1]; 10%) was 0.6, the HSP27 expression ([1]; 10%) was 1.1 and the HSP90 expression ([1]; 10%) was 1.1. For the same compound, the IL18 expression ([1]; 10%) was 1.1, the IVL expression ([1]; 10%) was 0.9 and the KRT4 expression ([1]; 10%) was 0.8. It also gave an MELANA expression ([1]; 10%) of 1.9, an NGAL expression ([1]; 10%) of 0.7 and a P13 expression ([1]; 10%) of 0.9. The PDZK1iP1 expression ([1]; 10%) was 0.9, the SERPINB3 expression ([1]; 10%) was 1.2 and the “BRAK NUMBER OF GENES grade” value ([1]; 50%) was 0 (if this expression is lower, the grade is 0). The “CTSS NUMBER OF GENES grade” value ([1]; 50%) was 0 (if this expression is lower, the grade is 0), the “CXCR1 NUMBER OF GENES grade” value ([1]; 50%) was 1 (If the expression is greater than 1.3 compared to the control, a grade of 11s given) and the “DAPK2 NUMBER OF GENES grade” value ([1]; 50%) was 1 (If the expression is greater than 1.3 compared to the control, a grade of 11s given). The “DEFB1 NUMBER OF GENES grade” value ([1]; 50%) was 1 (If the expression is greater than 1.3 compared to the control, a grade of 11s given), the “DHFR NUMBER OF GENES grade” value ([1]; 50%) was 0 (if this expression is lower, the grade is 0) and the “EHF NUMBER OF GENES grade” value ([1]; 50%) was 0 (if this expression is lower, the grade is 0). The “FABP4 NUMBER OF GENES grade” value ([1]; 50%) was 1 (If the expression is greater than 1.3 compared to the control, a grade of 11s given), the “HSP27 NUMBER OF GENES grade” value ([1]; 50%) was 1 (If the expression is greater than 1.3 compared to the control, a grade of 11s given) and the “HSP90 NUMBER OF GENES grade” value ([1]; 50%) was 1 (If the expression is greater than 1.3 compared to the control, a grade of 11s given). For the same compound, the “IL18 NUMBER OF GENES grade” value ([1]; 50%) was 0 (if this expression is lower, the grade is 0), the “IVL NUMBER OF GENES grade” value ([1]; 50%) was 1 (If the expression is greater than 1.3 compared to the control, a grade of 11s given) and the “KRT4 NUMBER OF GENES grade” value ([1]; 50%) was 1 (If the expression is greater than 1.3 compared to the control, a grade of 11s given). For the same compound, the “MELANA NUMBER OF GENES grade” value ([1]; 50%) was 0 (if this expression is lower, the grade is 0), the “NGAL NUMBER OF GENES grade” value ([1]; 50%) was 1 (If the expression is greater than 1.3 compared to the control, a grade of 11s given) and the “P13 NUMBER OF GENES grade” value ([1]; 50%) was 1 (If the expression is greater than 1.3 compared to the control, a grade of 11s given). For the same compound, the “PDZK1iP1 NUMBER OF GENES grade” value ([1]; 50%) was 1 (If the expression is greater than 1.3 compared to the control, a grade of 11s given), the “SENS >1.3 (number of genes)” value ([1]; 50%) was 15 and the “SERPINB3 NUMBER OF GENES grade” value ([1]; 50%) was 1 (If the expression is greater than 1.3 compared to the control, a grade of 11s given). For the same compound, the “TOTAL SENS (number of genes)” value ([1]; 50%) was 15, the BRAK expression ([1]; 50%) was 0.4 and the CTSS expression ([1]; 50%) was 0.1. For the same compound, the CXCR1 expression ([1]; 50%) was 2.2, the DAPK2 expression ([1]; 50%) was 1.5 and the DEFB1 expression ([1]; 50%) was 3.0. For the same compound, the DHFR expression ([1]; 50%) was 0.6, the EHF expression ([1]; 50%) was 1.2 and the FABP4 expression ([1]; 50%) was 1.4. The HSP27 expression ([1]; 50%) was 5.4, the HSP90 expression ([1]; 50%) was 9.1 and the IL18 expression ([1]; 50%) was 0.7. The IVL expression ([1]; 50%) was 2.6, the KRT4 expression ([1]; 50%) was 4.6 and the MELANA expression ([1]; 50%) was 1.0. For the same compound, the NGAL expression ([1]; 50%) was 1.3, the P13 expression ([1]; 50%) was 1.4 and the PDZK1iP1 expression ([1]; 50%) was 1.7. For the same compound, the SERPINB3 expression ([1]; 50%) was 1.4, the “ARE >1.3 (number of genes)” value [2] was 10 and the “TOTAL ARE (number of genes)” value [2] was 10. The AHR expression ([2]; human, 6 h, 10 %) was 0.8, the AKR1B10 expression ([2]; human, 6 h, 10 %) was 0.9 and the AKR1C1 expression ([2]; human, 6 h, 10 %) was 1.3. For the same compound, the AKR1C2 expression ([2]; human, 6 h, 10 %) was 1.1, the “ARE >1.3 (number of genes)” value ([2]; human, 6 h, 10 %) was 3 and the CD36 expression ([2]; human, 6 h, 10 %) was 1.7. It also gave a CYP1A1 expression ([2]; human, 6 h, 10 %) of 0.5, a CYP1B1 expression ([2]; human, 6 h, 10 %) of 0.6 and an FTH1P expression ([2]; human, 6 h, 10 %) of 1.1. For the same compound, the FTL expression ([2]; human, 6 h, 10 %) was 1.1, the GCLC expression ([2]; human, 6 h, 10 %) was 1.3 and the GCLM expression ([2]; human, 6 h, 10 %) was 1.1. For the same compound, the HMOX1 expression ([2]; human, 6 h, 10 %) was 1.3, the NQO1 expression ([2]; human, 6 h, 10 %) was 1.1 and the NQO2 expression ([2]; human, 6 h, 10 %) was 1.0. The S100A8 expression ([2]; human, 6 h, 10 %) was 1.0, the SLC7A11 expression ([2]; human, 6 h, 10 %) was 1.2 and the “TOTAL ARE (number of genes)” value ([2]; human, 6 h, 10 %) was 3. It also gave a TXNRD1 expression ([2]; human, 6 h, 10 %) of 1.1, a UGT1A1 expression ([2]; human, 6 h, 10 %) of 1.0 and a UGT1A9 expression ([2]; human, 6 h, 10 %) of 0.7. For the same compound, the AHR expression ([2]; human, 6 h, 50 %) was 1.3, the AKR1B10 expression ([2]; human, 6 h, 50 %) was 1.0 and the AKR1C1 expression ([2]; human, 6 h, 50 %) was 0.7. For the same compound, the AKR1C2 expression ([2]; human, 6 h, 50 %) was 0.7, the CD36 expression ([2]; human, 6 h, 50 %) was 2.3 and the CYP1A1 expression ([2]; human, 6 h, 50 %) was 2.3. It also gave a CYP1B1 expression ([2]; human, 6 h, 50 %) of 0.9, an FTH1P expression ([2]; human, 6 h, 50 %) of 2.3 and an FTL expression ([2]; human, 6 h, 50 %) of 4.2. For the same compound, the GCLC expression ([2]; human, 6 h, 50 %) was 3.2, the GCLM expression ([2]; human, 6 h, 50 %) was 1.1 and the HMOX1 expression ([2]; human, 6 h, 50 %) was 2.4. It also gave an NQO1 expression ([2]; human, 6 h, 50 %) of 0.7, an NQO2 expression ([2]; human, 6 h, 50 %) of 1.3 and an S100A8 expression ([2]; human, 6 h, 50 %) of 1.9. For the same compound, the SLC7A11 expression ([2]; human, 6 h, 50 %) was 2.6, the TXNRD1 expression ([2]; human, 6 h, 50 %) was 3.0 and the UGT1A1 expression ([2]; human, 6 h, 50 %) was 0.5. For the same compound, the UGT1A9 expression ([2]; human, 6 h, 50 %) was 25.0 and the “sensitizing power (class)” value [3] was “WEAK”.
